Data: PubChem BioAssay (NCI)
Where “and” joins values, the source holds several entries; their conditions need not be identical. Identical values can stand only once.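 Exposure lasted 48 hours, with cells grown in 96-well plates and compounds tested at five concentrations. The concentration for 50% growth inhibition is given as GI50. Definition used: TGI = concentration required for complete inhibition of growth.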

Assays:
Assay in all cases: NCI tumour cell line growth inhibition, 48 h
[1] = tested on: NCI-H522 lung
[2] = tested on: CCRF-CEM leukemia
[3] = tested on: T-47D breast
[4] = tested on: DU-145 prostate
[5] = tested on: ACHN renal
[6] = tested on: HT29 colon
[7] = tested on: SF-268 CNS
[8] = tested on: DMS 273 small cell lung
[9] = tested on: KM20L2 colon

| SMILES | GI50 [1] | TGI [1] | GI50 [2] | GI50 [3] | TGI [3] | GI50 [4] | TGI [4] | GI50 [5] | TGI [5] | GI50 [6] | TGI [6] | GI50 [7] | TGI [7] | TGI [2] | TGI [8] | TGI [9] | GI50 [8] | GI50 [9] |
| --- | --- | --- | --- | --- | --- | --- | --- | --- | --- | --- | --- | --- | --- | --- | --- | --- | --- | --- |
| COc1ccc2c(c1)C(=O)/C(=C/c1cccc(OCC(=O)c3ccc([N+](=O)[O-])cc3)c1)CO2 | 3.5 µM | 9.41 µM | 2.32 µM | 1.65 µM | 4.54 µM | 2.73 µM | 7.14 µM | 2.32 µM | 6.41 µM | 1.93 µM | 4.6 µM | 2.7 µM | 7.74 µM | – | – | – | – | – |
| COC(=O)c1cc2c([nH]c3ccccc32)c(-c2nc3ccccc3cc2CO)n1 | 73 µM | > 100 µM | 25.5 µM | > 100 µM | > 100 µM | > 100 µM | > 100 µM | 30 µM | > 100 µM | > 100 µM | > 100 µM | > 100 µM | > 100 µM | > 100 µM | – | – | – | – |
| CCCCNP1(NCCCC)=NP(NCCCC)(NCCCC)=NP(NCCCC)(NCCCC)=NP(NCCCC)(NCCCC)=N1 | 0.287 µM | 4.3 µM | 0.313 µM | 0.26 µM | 3.07 µM | 0.895 µM | 15.2 µM | 2.5 µM | > 32.9 µM | 0.213 µM | 17.7 µM | 1.53 µM | 21.2 µM | 12.3 µM | – | – | – | – |
| C[C@H]1[C@H](C)CC[C@]2(C(=O)O)CCC3(COC(=O)/C=C/c4ccc(O)cc4)C(=CCC4[C@@]5(C)CC[C@H](O)C(C)(C)C5CC[C@]43C)[C@H]12 (stereo partly drawn) | – | 17.1 µM | – | – | – | – | – | – | 13.1 µM | – | 18.6 µM | – | 22.5 µM | 17.3 µM | 25.9 µM | 16.4 µM | – | – |
| C=C(C)C1CC=C(C)C(O)([C@@]2(O)C[C@H](C(=C)C)CC=C2C)C1 (stereo partly drawn) | – | 41.5 µM | – | – | – | – | – | – | 47.7 µM | – | 37.7 µM | – | > 100 µM | 46.3 µM | 39.9 µM | – | – | – |
| CCC1=CCC(P(=O)(c2ccccc2)c2ccccc2)CC1C (stereo not drawn) | – | 47.4 µM | – | – | – | – | – | – | – | – | > 100 µM | – | > 100 µM | > 100 µM | > 100 µM | > 100 µM | – | – |
| N#Cc1ccc(C(=O)c2cnn(-c3ccc(F)cc3)c2N)cc1 | > 25 µM | > 25 µM | > 25 µM | > 25 µM | > 25 µM | > 25 µM | > 25 µM | > 25 µM | > 25 µM | > 25 µM | > 25 µM | > 25 µM | > 25 µM | > 25 µM | – | – | – | – |
| CC[C@@]1(O)C(=O)OCc2c1cc1n(c2=O)Cc2cc3cccc(N)c3nc2-1 | 3.92 µM | > 100 µM | 1.07 µM | – | – | – | – | 2.81 µM | 10.3 µM | > 100 µM | > 100 µM | 2.51 µM | > 100 µM | > 100 µM | 8.48 µM | > 100 µM | 1.78 µM | 26.2 µM |
| CN(CO)c1nc(N(C)CO)nc(N(C)CO)n1 | – | 43.9 µM and 53.7 µM | 25.5 µM | 25 µM | 67.7 µM and 211 µM | 29 µM | 64.8 µM and 76.5 µM | – | 79.2 µM and 75.6 µM | 26.3 µM | 71.2 µM and 144 µM | 26.2 µM and 18.5 µM | 64.1 µM and 70.2 µM | 73.6 µM | 25.8 µM | 25.2 µM | – | – |
| Fc1ccc(-c2c(-c3ccncc3)[nH]c3cccnc23)cc1 | > 19.8 µM | > 25 µM | > 25 µM | 13.4 µM | > 25 µM | > 22.7 µM | > 25 µM | 1.63 µM | > 25 µM | 8.18 µM | > 25 µM | > 25 µM | > 25 µM | > 25 µM | – | – | – | – |
| CC1=C(C(=O)Nc2ccccc2C)C(c2ccccc2O)C(C(=O)Nc2ccccc2C)=C(C)N1 | – | – | – | – | – | – | – | – | 47.9 µM | – | 64.3 µM | – | 70.1 µM | > 100 µM | 35.2 µM | 45.6 µM | – | – |
| Oc1ccccc1/C=N\Nc1ccccc1 | 1.73 µM | 82.9 µM | 0.533 µM | 3.43 µM | > 100 µM | 15.8 µM | > 100 µM | 2.84 µM | 62.2 µM | 9.39 µM | 28.4 µM | 18.6 µM | > 100 µM | > 100 µM | – | – | – | – |
| C/C(CC(=O)Nc1cccc([N+](=O)[O-])c1)=N/NC(N)=S | – | > 100 µM | – | – | – | – | – | – | > 100 µM | – | > 100 µM | – | > 100 µM | > 100 µM | – | > 100 µM | – | – |
| CCc1nc(N)nc(N)c1-c1ccc(N(C)Cc2ccccc2)c([N+](=O)[O-])c1 | – | 14.6 µM | – | – | 21.4 µM | – | 31.7 µM | – | 36.1 µM | – | 14.6 µM | – | 37.9 µM | 12.7 µM | – | – | – | – |
| COC(=O)/C=C(C)/C=C/c1c(C)c(C(C)=O)c(C)n1C | – | > 100 µM | – | – | – | – | – | – | > 100 µM | – | > 100 µM | – | > 100 µM | > 100 µM | > 100 µM | > 100 µM | – | – |
| O=C1/C=C/[C@@H](O)[C@@H]2C[C@@H](O)C[C@H]2/C=C/CCC[C@H](CCc2ccc(NC(=S)Nc3ccc4c(c3)C(=O)OC43c4ccc(O)cc4Oc4cc(O)ccc43)cc2)O1 | 1.6 µM | 5.24 µM | 0.426 µM | 1.39 µM | 76 µM | 2.81 µM | > 100 µM | 0.803 µM | > 100 µM | 0.365 µM | 3.61 µM | 0.405 µM | > 100 µM | > 100 µM | – | – | – | – |
| Cc1cc(C(=O)CC(Cl)=C(Cl)Cl)c(Cl)cc1Cl | 22.6 µM | 69.4 µM | 3.54 µM | 19.9 µM | 44.2 µM | 16 µM | 40.4 µM | 18.1 µM | 39.4 µM | 34.6 µM | > 100 µM | 20.9 µM | 55.8 µM | 27.3 µM | – | – | – | – |
| CCCn1cc(/C=N\N=C2\C(=O)Nc3ccc(C)cc32)c2ccccc21 | 1.81 µM | 6.59 µM | 1.94 µM | 0.416 µM | 18.4 µM | 3.88 µM | 40.6 µM | 3.56 µM | > 100 µM | 3.4 µM | > 100 µM | 3.33 µM | 28 µM | > 100 µM | – | – | – | – |
